Reference: PubChem BioAssay (NCI)
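Five compound concentrations were applied to cells in 96-well plates for 48 hours; endpoints were derived by simple linear interpolation of the resulting dose-response curve. GI50 marks 50% less growth. TGI is the concentration that stops growth completely.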

Experiments:
Test in all cases: inhibition of tumour cell growth, NCI panel, 48 h
OVCAR-3 ovarian = test system: OVCAR-3 ovarian
HCT-116 colon = test system: HCT-116 colon
OVCAR-4 ovarian = test system: OVCAR-4 ovarian
KM12 colon = test system: KM12 colon
SNB-75 CNS = test system: SNB-75 CNS
SK-MEL-28 melanoma = test system: SK-MEL-28 melanoma
786-0 renal = test system: 786-0 renal
A549 NSCLC = test system: A549 NSCLC
OVCAR-5 ovarian = test system: OVCAR-5 ovarian
SNB-19 CNS = test system: SNB-19 CNS
PC-3 prostate = test system: PC-3 prostate
SN12C renal = test system: SN12C renal
LOX IMVI melanoma = test system: LOX IMVI melanoma
NCI-H522 lung = test system: NCI-H522 lung
HOP-92 NSCLC = test system: HOP-92 NSCLC
T-47D breast = test system: T-47D breast
NCI-H226 lung = test system: NCI-H226 lung
ACHN renal = test system: ACHN renal
HCC-2998 colon = test system: HCC-2998 colon
SF-539 CNS = test system: SF-539 CNS
UO-31 renal = test system: UO-31 renal
OVCAR-8 ovarian = test system: OVCAR-8 ovarian
HL-60(TB) leukemia = test system: HL-60(TB) leukemia
MALME-3M melanoma = test system: MALME-3M melanoma
HOP-62 NSCLC = test system: HOP-62 NSCLC
A498 renal = test system: A498 renal
NCI-H460 lung = test system: NCI-H460 lung
U251 CNS = test system: U251 CNS
SF-268 CNS = test system: SF-268 CNS
COLO 205 colon = test system: COLO 205 colon
HT29 colon = test system: HT29 colon
SK-MEL-5 melanoma = test system: SK-MEL-5 melanoma
SK-MEL-2 melanoma = test system: SK-MEL-2 melanoma
CCRF-CEM leukemia = test system: CCRF-CEM leukemia
NCI-H23 lung = test system: NCI-H23 lung
CAKI-1 renal = test system: CAKI-1 renal
MCF7 breast = test system: MCF7 breast
UACC-257 melanoma = test system: UACC-257 melanoma
RXF 393 renal = test system: RXF 393 renal
MDA-MB-435 = test system: MDA-MB-435
BT-549 breast = test system: BT-549 breast
NCI/ADR-RES ovarian = test system: NCI/ADR-RES ovarian
M14 melanoma = test system: M14 melanoma
DU-145 prostate = test system: DU-145 prostate
UACC-62 melanoma = test system: UACC-62 melanoma
SK-OV-3 ovarian = test system: SK-OV-3 ovarian
TK-10 renal = test system: TK-10 renal
SW-620 colon = test system: SW-620 colon
MDA-MB-231 breast = test system: MDA-MB-231 breast
EKVX NSCLC = test system: EKVX NSCLC
HS 578T breast = test system: HS 578T breast
SF-295 CNS = test system: SF-295 CNS
SR leukemia = test system: SR leukemia
HCT-15 colon = test system: HCT-15 colon
K-562 leukemia = test system: K-562 leukemia
IGROV1 ovarian = test system: IGROV1 ovarian
MOLT-4 leukemia = test system: MOLT-4 leukemia
RPMI-8226 leukemia = test system: RPMI-8226 leukemia

## O=C(CCl)Nc1ccc2c(Nc3cc(O)ccc3Cl)ncnc2c1
OVCAR-3 ovarian
  GI50: 1.71 µM
  TGI: 5.2 µM
HCT-116 colon
  GI50: 0.93 µM
  TGI: 3.99 µM
OVCAR-4 ovarian
  GI50: 3.09 µM
  TGI: 7.44 µM
KM12 colon
  GI50: 3.23 µM
  TGI: 7.11 µM
SNB-75 CNS
  GI50: 3.28 µM
  TGI: 6.56 µM
SK-MEL-28 melanoma
  GI50: 3.66 µM
  TGI: 7.97 µM
786-0 renal
  GI50: 1.24 µM
  TGI: 4.56 µM
A549 NSCLC
  GI50: 4.08 µM
  TGI: 8.26 µM
OVCAR-5 ovarian
  GI50: 3.4 µM
  TGI: 7.03 µM
SNB-19 CNS
  GI50: 2.14 µM
  TGI: 5.22 µM
PC-3 prostate
  GI50: 3.02 µM
  TGI: 6.79 µM
SN12C renal
  GI50: 1.21 µM
  TGI: 4.06 µM
LOX IMVI melanoma
  GI50: 0.818 µM
  TGI: 3.64 µM
NCI-H522 lung
  GI50: 0.664 µM
  TGI: 2.12 µM
HOP-92 NSCLC
  GI50: 4.86 µM
  TGI: 9.38 µM
T-47D breast
  GI50: 3.51 µM
  TGI: 7.72 µM
NCI-H226 lung
  GI50: 5.86 µM
  TGI: 12.3 µM
ACHN renal
  GI50: 2.87 µM
  TGI: 6.52 µM
HCC-2998 colon
  GI50: 4.9 µM
  TGI: 9.81 µM
SF-539 CNS
  GI50: 3.38 µM
  TGI: 6.84 µM
UO-31 renal
  GI50: 2.69 µM
  TGI: 6 µM
OVCAR-8 ovarian
  GI50: 3.71 µM
  TGI: 10.1 µM
HL-60(TB) leukemia
  GI50: 1.15 µM
  TGI: 4.88 µM
MALME-3M melanoma
  GI50: 3.9 µM
  TGI: 8.1 µM
HOP-62 NSCLC
  GI50: 3.27 µM
  TGI: 7.17 µM
A498 renal
  GI50: 5.51 µM
  TGI: 11.1 µM
NCI-H460 lung
  GI50: 2.33 µM
  TGI: 6.4 µM
U251 CNS
  GI50: 0.828 µM
  TGI: 2.97 µM
SF-268 CNS
  GI50: 2.65 µM
  TGI: 6.63 µM
COLO 205 colon
  GI50: 4.03 µM
  TGI: 8.06 µM
HT29 colon
  GI50: 1.93 µM
  TGI: 5.78 µM
SK-MEL-5 melanoma
  GI50: 3.22 µM
  TGI: 6.76 µM
SK-MEL-2 melanoma
  GI50: 3.65 µM
  TGI: 8.19 µM
CCRF-CEM leukemia
  GI50: 0.892 µM
  TGI: 3.02 µM
NCI-H23 lung
  GI50: 2.73 µM
  TGI: 7.1 µM
CAKI-1 renal
  GI50: 3.36 µM
  TGI: 7.45 µM
MCF7 breast
  GI50: 1.07 µM
  TGI: 5 µM
UACC-257 melanoma
  GI50: 4.02 µM
  TGI: 8.44 µM
RXF 393 renal
  GI50: 3.37 µM
  TGI: 7.13 µM
MDA-MB-435
  GI50: 2.21 µM
  TGI: 5.75 µM
BT-549 breast
  GI50: 2.02 µM
  TGI: 5.81 µM
NCI/ADR-RES ovarian
  GI50: 3.55 µM
  TGI: 9.31 µM
M14 melanoma
  GI50: 3.3 µM
  TGI: 7.26 µM
DU-145 prostate
  GI50: 2.39 µM
  TGI: 5.36 µM
UACC-62 melanoma
  GI50: 2.38 µM
  TGI: 5.98 µM
SK-OV-3 ovarian
  GI50: 4.24 µM
  TGI: 7.94 µM
TK-10 renal
  GI50: 3.87 µM
  TGI: 8.23 µM
SW-620 colon
  GI50: 1.14 µM
  TGI: 3.79 µM
MDA-MB-231 breast
  GI50: 2.75 µM
  TGI: 6.25 µM
EKVX NSCLC
  GI50: 3.03 µM
  TGI: 6.87 µM
HS 578T breast
  GI50: 3.27 µM
  TGI: 15.2 µM
SF-295 CNS
  GI50: 2.58 µM
  TGI: 5.96 µM
SR leukemia
  GI50: 0.758 µM
  TGI: 3.72 µM
HCT-15 colon
  GI50: 0.773 µM
  TGI: 3.32 µM
K-562 leukemia
  GI50: 0.929 µM
  TGI: 7.23 µM
IGROV1 ovarian
  GI50: 2.12 µM
  TGI: 6.32 µM
MOLT-4 leukemia
  GI50: 0.846 µM
  TGI: 4.03 µM
RPMI-8226 leukemia
  GI50: 2.94 µM
  TGI: 7.66 µM
